Reference: PubChem BioAssay (NCI)
Several values for one entry are separate records, joined by “and”; a condition that tells them apart may be missing. Identical values can stand only once.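 Cultured in 96-well plates, cells were exposed to test compound for 48 hours across five concentrations. Abbreviation: GI50, concentration required for 50% inhibition of growth. TGI: concentration producing complete growth inhibition.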

Columns and labels:
Assay in all cases: NCI anticancer screen, dose series, 48 h
BT-549 breast = test system: BT-549 breast
MALME-3M melanoma = test system: MALME-3M melanoma
MCF7 breast = test system: MCF7 breast
MDA-MB-435 = test system: MDA-MB-435
OVCAR-3 ovarian = test system: OVCAR-3 ovarian
OVCAR-5 ovarian = test system: OVCAR-5 ovarian
SK-MEL-2 melanoma = test system: SK-MEL-2 melanoma
SK-MEL-28 melanoma = test system: SK-MEL-28 melanoma
UACC-257 melanoma = test system: UACC-257 melanoma
UACC-62 melanoma = test system: UACC-62 melanoma

SMILES	GI50 (BT-549 breast)	TGI (BT-549 breast)	GI50 (MALME-3M melanoma)	TGI (MALME-3M melanoma)	GI50 (MCF7 breast)	TGI (MCF7 breast)	GI50 (MDA-MB-435)	TGI (MDA-MB-435)	GI50 (OVCAR-3 ovarian)	TGI (OVCAR-3 ovarian)	GI50 (OVCAR-5 ovarian)	TGI (OVCAR-5 ovarian)	GI50 (SK-MEL-2 melanoma)	TGI (SK-MEL-2 melanoma)	GI50 (SK-MEL-28 melanoma)	TGI (SK-MEL-28 melanoma)	GI50 (UACC-257 melanoma)	TGI (UACC-257 melanoma)	GI50 (UACC-62 melanoma)	TGI (UACC-62 melanoma)
CC1(/C=C/c2ccc(-c3ccccc3)cc2)CCn2cnc3ncnc(c32)N1O (stereo not drawn)	0.495 µM	16.9 µM	0.412 µM	14.7 µM	0.342 µM	> 69.4 µM	0.646 µM	39.6 µM	0.425 µM	20.7 µM	0.623 µM	58.7 µM	1.42 µM	41.2 µM	0.656 µM	20 µM	0.445 µM	25.3 µM	0.356 µM	2.27 µM
Clc1ccc(Nc2nnc(COc3ccccc3)c3ccccc23)cc1	2.05 µM	6.65 µM	1.38 µM	7.3 µM	1.18 µM	6.07 µM	1.01 µM	5.31 µM	2.87 µM	9.8 µM	3.88 µM	15.4 µM	0.971 µM	5.13 µM	2.84 µM	7.23 µM	2.54 µM	5.82 µM	1.24 µM	5.69 µM
O=C(Nc1ccc([N+](=O)[O-])cc1Cl)c1cc(Cl)ccc1O	0.105 µM and 0.156 µM	0.344 µM and 0.647 µM	0.101 µM and 0.194 µM	0.338 µM and 0.744 µM	0.151 µM and 0.286 µM		0.115 µM and 0.244 µM	0.381 µM and 1.33 µM	0.141 µM and 0.283 µM	2.59 µM and 21.5 µM	0.249 µM and 0.373 µM	50 µM and > 95.5 µM	0.111 µM and 0.167 µM	0.268 µM and 0.443 µM	0.165 µM and 0.243 µM	2.03 µM and 2.01 µM	0.0846 µM and 0.185 µM	0.267 µM and 0.603 µM	0.0773 µM and 0.0678 µM	0.568 µM and 0.392 µM
Cc1cc(C(=O)NOCCO)c(Nc2ccc(I)cc2F)n(C)c1=O	> 100 µM	> 100 µM	< 0.01 µM	0.0115 µM and < 0.01 µM	> 100 µM	> 100 µM	0.00458 µM and < 0.01 µM	> 100 µM	> 100 µM	> 100 µM	0.00163 µM and < 0.0168 µM	> 100 µM	0.00299 µM and < 0.01 µM		0.00227 µM and < 0.01 µM		0.00186 µM and < 0.01 µM	0.0128 µM and < 0.0197 µM	0.0015 µM and < 0.01 µM	0.0116 µM and 0.0221 µM
O=C1NC(=O)/C(=C/c2ccc3nccc(-c4ccncc4)c3c2)S1	0.212 µM	1.39 µM	0.288 µM	2.12 µM	0.164 µM	> 10 µM	0.402 µM	> 7.25 µM	0.252 µM	2.07 µM	0.326 µM	3.89 µM	0.438 µM	2.25 µM	0.237 µM	2.29 µM	0.528 µM	5.22 µM	0.187 µM	1.3 µM
O=C(O)[C@@H](Cc1ccccc1)NS(=O)(=O)c1ccc(-c2ccccc2)cc1	> 100 µM	> 100 µM	> 100 µM	> 100 µM	> 100 µM	> 100 µM	> 100 µM	> 100 µM	> 100 µM	> 100 µM	> 100 µM	> 100 µM	> 100 µM	> 100 µM	> 100 µM	> 100 µM	> 100 µM	> 100 µM	> 100 µM	> 100 µM
COC(=O)C1(N2CCOCC2)CCC([C@@H](c2ccccc2)C(C)[N+](=O)[O-])C1 (stereo partly drawn)		60.8 µM		> 100 µM		54.5 µM		> 100 µM		71.3 µM		> 100 µM		> 100 µM		> 100 µM		86.9 µM		> 100 µM
NS(=O)(=O)c1ccc(NC(=O)Nc2cccc3ccccc23)cc1		> 100 µM		> 100 µM		> 100 µM		> 100 µM		> 100 µM		> 100 µM		> 100 µM		> 100 µM		> 100 µM		69.4 µM
C=C1CC2(CC(c3ccccc3C)OC(c3ccccc3C)C2)OC1=O (stereo not drawn)		4.09 µM		3.29 µM		3.87 µM		3.13 µM		3.58 µM		26.5 µM		4.13 µM		4.27 µM		3.66 µM		3.23 µM
OC(CBr)C(O)C(O)C(O)CBr (stereo not drawn)		> 77 µM		> 100 µM	13.7 µM and 40.1 µM	> 100 µM		> 100 µM		97 µM and > 100 µM		> 100 µM		> 100 µM		> 100 µM		> 100 µM	19.9 µM and 9.75 µM	> 75.4 µM and 65.1 µM
C[C@H]1O[C@@H](O[C@H]2[C@@H](O)C[C@H](O[C@H]3[C@@H](O)C[C@H](O[C@H]4CC[C@]5(C)C6CC[C@]7(C)[C@@H](C8=CC(=O)OC8)CC[C@]7(O)C6CC[C@@H]5C4)O[C@@H]3C)O[C@@H]2C)C[C@H](O)[C@@H]1O (stereo partly drawn)	0.0163 µM	0.0508 µM	0.019 µM	0.0783 µM	0.0181 µM	0.11 µM	0.017 µM	0.0666 µM		0.043 µM	0.0383 µM	0.111 µM	0.0192 µM	0.0675 µM	0.0313 µM	0.101 µM	0.0203 µM	0.0734 µM	0.0192 µM	0.075 µM
COc1cccc(/C=C/C(=O)c2cc3c(N)c(C(=O)Nc4ccccc4)sc3nc2C)c1	1.19 µM	4.06 µM	2.03 µM	15 µM	1.69 µM	8.85 µM	0.989 µM	2.86 µM	1.18 µM	3.32 µM	1.28 µM	4.61 µM	1.75 µM	8.63 µM	1.72 µM	6.45 µM	1.9 µM	8.97 µM	0.943 µM	2.19 µM
N/C(=N/O)NOCCC(N)C(=O)O (stereo not drawn)	> 100 µM	> 100 µM	> 100 µM	> 100 µM	> 100 µM	> 100 µM	> 100 µM	> 100 µM	> 100 µM	> 100 µM	> 100 µM	> 100 µM	> 100 µM	> 100 µM	> 100 µM	> 100 µM	> 100 µM	> 100 µM	> 100 µM	> 100 µM
COc1cc(N2CCN(C(C)C)CC2)ccc1Nc1nc(Nc2ccc(F)cc2C(N)=O)c2cc[nH]c2n1	3.28 µM	6.93 µM	0.228 µM	5.22 µM	0.0154 µM	4.07 µM	0.242 µM	5.45 µM	3.08 µM	6.43 µM	0.245 µM	6.27 µM	0.163 µM	1.77 µM	3.69 µM	7.59 µM	0.194 µM	5.6 µM	2.53 µM	6.42 µM
O=C(C#Cc1ccccc1)N1CCCCC1		> 100 µM		> 100 µM		> 100 µM		> 100 µM		> 100 µM		> 100 µM		> 100 µM		> 100 µM		> 100 µM		> 100 µM
O=C(COc1ccc(Cl)cc1Cl)NNc1ccc([N+](=O)[O-])cc1	24 µM	52 µM	23.6 µM	57.1 µM	> 100 µM	> 100 µM	> 100 µM	> 100 µM	> 100 µM	> 100 µM	> 100 µM	> 100 µM	22 µM	39.7 µM	39.1 µM	> 100 µM	99.6 µM	> 100 µM	27.7 µM	> 100 µM
Cn1cc(-c2[nH]c3cc(NC(=O)[C@H](N)C4CCCCC4)cc4c3c2C=NNC4=O)cn1	0.215 µM and 0.375 µM	1.41 µM and 5.85 µM	2.22 µM and 0.517 µM	24.7 µM and > 10 µM	0.211 µM and 0.209 µM	15.8 µM and > 10 µM	0.245 µM and 0.286 µM	1.23 µM and 1.28 µM	0.229 µM and 0.144 µM	3.02 µM and 3.73 µM	1.28 µM and 0.644 µM	15.8 µM and > 10 µM	0.262 µM	> 10 µM	7.99 µM	21.9 µM and > 10 µM	4.16 µM and > 6.97 µM	18.8 µM and > 10 µM	0.484 µM and 0.704 µM	18.7 µM and > 10 µM
COc1ccc(/C=C2\CCC(C)(CN(C)C)C2=O)cc1Br (stereo not drawn)		45.4 µM		61.9 µM		42.1 µM		44 µM		35.2 µM		> 100 µM		36.9 µM		45.4 µM		36.6 µM		20 µM
COc1ccc2c(c1)C(=O)CC(C(N)=O)C2 (stereo not drawn)		> 100 µM		> 100 µM		> 100 µM		> 100 µM		> 100 µM		> 100 µM		> 100 µM		> 100 µM		> 100 µM		> 100 µM
